From US20030013660A1, “Dioxolane analogs for improved inter-cellular delivery” (Shire BioChem Inc., priority 2000, published 2003)
Several values for one entry are separate records, joined by “and”; a condition that tells them apart may be missing. Identical values can stand only once. Like-named read-outs stand apart in the source and are kept apart here.

How the values were obtained:
CEM/dCK- [1] = test: MTT or WST-1 assay at 72 hr (24 hr drug exposure, wash, 48 hr); assay type: cell-based
Procedure: (§1) Exposition of 24hr to drug, washed, and incubated for another 48hr (total of 72hr assay)

CEM/dCK- [2] = test: 3H-TdR incorporation at 72 hr (24 hr drug exposure, wash, 48 hr); assay type: cell-based; conditions: for IC50: Homo sapiens, CCRF-CEM, read-out: IC50 in μM (3H-TdR incorporation at 72 hr) CEM/dCK- 24 h, CCRF-CEM deoxycytidine kinase-deficient, 24 h drug exposure, 72 hr assay; for Factor* (Resistance Factor = Ratio of dCK- on Wild-type CCRF-CEM): ratio of IC50 CEM/dCK- to IC50 CCRF-CEM
Procedure: (§2) Exposition of 24 hr to drug, wash, incubated for another 48 hr (total of 72 hr assay)
(§3) (3H-Thymidine Incorporation Assay)

SF-268 [3] = test: MTT assay at 72 hr (24 hr drug exposure, wash, 48 hr); assay type: cell-based
Procedure: as §1

H-460 [4] = test: 3H-TdR incorporation at 72 hr (24 hr drug exposure, wash, 48 hr); assay type: cell-based, Human; conditions: Homo sapiens, NCI-H460, read-out: IC50 in μM (3H-TdR incorporation at 72 hr) H-460 24 h, H-460 Human Lung Carcinoma, 72 hr assay
Procedure: as §2, §3

MCF-7 = test: as above; assay type: cell-based, Human; conditions: Homo sapiens, MCF7, read-out: IC50 in μM (3H-TdR incorporation at 72 hr) MCF-7 24 h, MCF-7 Human Breast Carcinoma, 72 hr assay
Procedure: as §2, §3

SF-268 [5] = test: as above; assay type: cell-based, Human; conditions: Homo sapiens, SF-268, read-out: IC50 in μM (3H-TdR incorporation at 72 hr) SF-268 24 h, SF-268 Human Central Nervous System Tumor; 24 h drug exposure, 72 hr assay
Procedure: as §2, §3

H-460 [6] = test: MTT assay at 72 hr (24 hr drug exposure, wash, 48 hr); assay type: cell-based
Procedure: as §1

CCRF-CEM = test: 3H-TdR incorporation at 72 hr (24 hr drug exposure, wash, 48 hr); assay type: cell-based; conditions: read-out: IC50 in μM (3H-TdR incorporation at 72 hr) CCRF-CEM 24 h, CCRF-CEM T-cell Leukemia, 72 hr assay
Procedure: as §2, §3

[7] = read-out: IC50 CEM/dCK- 24 h, MMT or WST-1 at 72 hr, 24 h exposure, single experiment
[8] = read-out: IC50 CEM/dCK- 24 h; MMT or WST-1 at 72 hr, 24 h exposure, single experiment
[9] = read-out: IC50 SF-268 24 h, MTT at 72 hr, 24 h exposure, single experiment
[10] = read-out: IC50 H-460 24 h, MTT at 72 hr, 24 h exposure, single experiment

| Structure (SMILES) | IC50 (CEM/dCK- [1]; [7]) [nM] | IC50 (CEM/dCK- [1]; [8]) | IC50 (CEM/dCK- [2]) [µM] | IC50 (SF-268 [3]; Homo sapiens, SF-268, read-out: IC50 SF-268 24 h, MTT at 72 hr, 24 h exposure, single experiment) [nM] | IC50 (SF-268 [3]; [9]) | IC50 (H-460 [4]) [µM] | IC50 (MCF-7) [µM] | IC50 (SF-268 [5]) [µM] | IC50 (H-460 [6]; [10]) [nM] | IC50 (CCRF-CEM; Homo sapiens, CCRF-CEM) [nM] | Factor* (Resistance Factor = Ratio of dCK- on Wild-type CCRF-CEM) (CEM/dCK- [2]) | IC50 (CCRF-CEM) [nM] | IC50 (H-460 [6]; Homo sapiens, NCI-H460, read-out: IC50 H-460 24 h, MTT at 72 hr, 24 h exposure, single experiment) [nM] |
| --- | --- | --- | --- | --- | --- | --- | --- | --- | --- | --- | --- | --- | --- |
| CC(C)(C)c1cc(C(=O)OC[C@H]2OC[C@@H](n3ccc(N)nc3=O)O2)cc(C(C)(C)C)c1 [Compound 186, 3,5-DI-TERT-BUTYL- BENZOIC ACID 4-(4- AMINO-2-OXO-2H- PYRIMIDIN-1-YL)- [1,3]DIOXOLAN-2- YLMETHYL ESTER] | 26000 | 14000 nM | > 100 |  |  |  |  |  |  |  |  |  |  |
| CCCCC[C@]12CC[C@](C(=O)Nc3ccn([C@@H]4CO[C@H](CO)O4)c(=O)n3)(CC1)CC2 [Compound 210, 4-Pentyl-Bicyclo[2.2.2]Octane-1-Carboxylic Acid [1-(2-Hydroxymethyl-[1,3]Dioxolan-4-Yl)-2-Oxo-1,2-Dihydro-Pyrimidin-4-Yl]-Amide] |  |  | > 100 | ≥ 100000 | > 100000 nM and 51000 nM | 0.0026 | 0.005 | 0.26 |  |  |  |  |  |
| CCCCC[C@H]1CC[C@H](C(=O)Nc2ccn([C@@H]3CO[C@H](CO)O3)c(=O)n2)CC1 [Compound 239, 4-PENTYL- CYCLOHEXANECARBOXYLIC ACID [1-(2- HYDROXYMETHYL- [1,3]DIOXOLAN-4-YL)-2- OXO-1,2-DIHYDRO- PYRIMIDIN-4-YL]-AMIDE] | 20000 | 28000 nM and 17000 nM | 20 |  |  | 0.0065 | 0.00033 | 0.19 | 200 | 3 | 6667 |  |  |
| CCCCC[C@]12CC[C@](C(=O)OC[C@H]3OC[C@@H](n4ccc(N)nc4=O)O3)(CC1)CC2 [Compound 211, 4-PENTYL- BICYCLO[2.2.2]OCTANE-1- CARBOXYLIC ACID 4-(4- AMINO-2-OXO-2H- PYRIMIDIN-1-YL)- [1,3]DIOXOLAN-2-YL METHYL ESTER] |  |  |  |  | 34 nM |  |  |  |  | 0.027 |  | 0.053 |  |
| CCCCCCCCCCCC(=O)Nc1ccn([C@@H]2CO[C@H](CO)O2)c(=O)n1 [Compound 208, DODECANOIC ACID [1-(2- HYDROXYMETHYL- [1,3]DIOXOLAN-4-YL)-2- OXO-1,2-DIHYDRO- PYRIMIDIN-4-YL]-AMIDE] |  |  |  |  |  |  |  |  | 200 | < 0.1 |  | 0.052 | 110 |
| Cl.Nc1ccn([C@@H]2CO[C@H](COC(=O)OCc3ccc([N+](=O)[O-])cc3)O2)c(=O)n1 [Compound 183, CARBONIC ACID 4-(4- AMINO-2-OXO-2H- PYRIMIDIN-1-YL)- [1,3]DIOXOLAN-2- YLMETHYL ESTER 4-NITRO- BENZYL ESTER HYDROCHLORIDE SALT] |  |  | 45 |  |  | 0.037 | 0.038 | 0.12 |  | 18 | 2,500 |  |  |
| CC(C)(C)OC(=O)NCCCCCC(=O)Nc1ccn([C@@H]2CO[C@H](COC(=O)CCCCCNC(=O)OC(C)(C)C)O2)c(=O)n1 [Compound 192, 6-TERT!- BUTOXYCARBONYLAMINO- HEXANOIC ACID 4-[4-(6- TERT- BUTOXYCARBONYLAMINO- HEXANOYLAMINO)-2-OXO- 2H-PYRIMIDIN-1-YL]- [1,3]DIOXOLAN-2-YL METHYL ESTER] |  |  | 48 |  |  | 0.29 | 0.0016 | 0.4 |  | 8.4 | 5,714 |  |  |
| CN(C)/C=N/c1ccn([C@@H]2CO[C@H](CO)O2)c(=O)n1 (stereo in doubt) [Compound 222, N′-[1-(2-HYDROXYMETHYL- [1,3]DIOXOLAN-4-YL)-2- OXO-1,2-DIHYDRO- PYRIMIDIN-4-YL]-N,N- DIMETHYL-FORMAMIDINE] |  |  | > 100 |  |  | 0.21 | 0.19 | 0.85 |  | 110 | >909 |  |  |
